# Experiments:
# Granta-519 [1] = assay: Induction of apoptosis in human Granta-519 cells assessed as viable cells at 2000 nM incubated for 48 hrs by Annexin-V-FITC/propidium iodide staining based flow cytometry (reference value: 92.7 %); assay type: functional; details: read-out: Activity
# ATR/ATRIP = ATR/ATRIP (Homo sapiens, UniProt Q13535); assay: Inhibition of ATR/ATRIP (unknown origin) using 5-FAM-AK-17 as substrate preincubated with compound for 10 mins followed by ATP addition and measured after 240 mins by mobility shift assay; assay type: protein-complex assay
# [2] = target: Serine/threonine-protein kinase mTOR (Homo sapiens, UniProt P42345); assay: Inhibition of human mTOR
# [3] = target: NUAK family SNF1-like kinase 1 (Homo sapiens, UniProt O60285); assay: Inhibition of human ARK5
# [4] = target: Tyrosine-protein kinase Lck (Homo sapiens, UniProt P06239); assay: Inhibition of human LCK
# [5] = target: Tyrosine-protein kinase BTK (Homo sapiens, UniProt Q06187); assay: Inhibition of human BTK
# [6] = target: Tyrosine-protein kinase Mer (Homo sapiens, UniProt Q12866); assay: Inhibition of human MER
# [7] = target: Serine/threonine-protein kinase BRSK2 (Homo sapiens, UniProt Q8IWQ3); assay: Inhibition of human BRSK2
# [8] = target: Interleukin-1 receptor-associated kinase 4 (Homo sapiens, UniProt Q9NWZ3); assay: Inhibition of human IRAK4
# Aurora kinase B = Aurora kinase B (Homo sapiens, UniProt Q96GD4); assay: Inhibition of human Aurora B
# [9] = target: Tyrosine-protein kinase JAK1 (Homo sapiens, UniProt P23458); assay: Inhibition of human JAK1
# [10] = target: Cyclin-dependent kinase 2 (Homo sapiens, UniProt P24941); assay: Inhibition of human CDK2
# AMPK alpha2/beta1/gamma1 = AMPK alpha2/beta1/gamma1 (Homo sapiens, UniProt P54619+P54646+Q9Y478); assay: Inhibition of human AMPK alpha2/beta1/gamma1; assay type: protein-complex assay
# [11] = target: Tyrosine-protein kinase Lyn (Homo sapiens, UniProt P07948); assay: Inhibition of human LYN
# [12] = target: Serine/threonine-protein kinase 17B (Homo sapiens, UniProt O94768); assay: Inhibition of human DRAK2
# [13] = target: Receptor-type tyrosine-protein kinase FLT3 (Homo sapiens, UniProt P36888); assay: Inhibition of human FLT3
# [14] = Lipophilicity, logD of compound at pH 7.4; assay type: physicochemical; details: buffer
# [15] = Plasma protein binding in mouse; assay type: ADME, cell-free; details: read-out: PPB (converted)
# [16] = Apparent permeability across apical to basolateral side in human Caco-2 cells; assay type: ADME, cell-based
# [17] = Apparent permeability across basolateral to apical side in human Caco-2 cells; assay type: ADME, cell-based
# [18] = Apparent permeability across apical to basolateral side in dog MDCK-MDR1 cells; assay type: ADME, cell-based, Canis lupus familiaris
# [19] = Apparent permeability across basolateral to apical side in dog MDCK-MDR1 cells; assay type: ADME, cell-based, Canis lupus familiaris
# CYP1A2 = CYP1A2 (Homo sapiens, UniProt P05177); assay: Time dependent inhibition of CYP1A2 (unknown origin) at 10 uM relative to control; assay type: ADME; details: read-out: TDI
# CYP2C9 = CYP2C9 (Homo sapiens, UniProt P11712); assay: Time dependent inhibition of CYP2C9 (unknown origin) at 10 uM relative to control; assay type: ADME; details: read-out: TDI
# [20] = AUClast in ICR mouse at 50 mg/kg,po measured upto 24 hrs by LC-MS/MS analysis; assay type: ADME, organism-based; details: in vivo
# CYP2C19 = CYP2C19 (Homo sapiens, UniProt P33261); assay: Time dependent inhibition of CYP2C19 (unknown origin) at 10 uM relative to control; assay type: ADME; details: read-out: TDI
# CYP2D6 = CYP2D6 (Homo sapiens, UniProt P10635); assay: Time dependent inhibition of CYP2D6 (unknown origin) at 10 uM relative to control; assay type: ADME; details: read-out: TDI
# Sequence of CYP2D6 (P10635 whole entry): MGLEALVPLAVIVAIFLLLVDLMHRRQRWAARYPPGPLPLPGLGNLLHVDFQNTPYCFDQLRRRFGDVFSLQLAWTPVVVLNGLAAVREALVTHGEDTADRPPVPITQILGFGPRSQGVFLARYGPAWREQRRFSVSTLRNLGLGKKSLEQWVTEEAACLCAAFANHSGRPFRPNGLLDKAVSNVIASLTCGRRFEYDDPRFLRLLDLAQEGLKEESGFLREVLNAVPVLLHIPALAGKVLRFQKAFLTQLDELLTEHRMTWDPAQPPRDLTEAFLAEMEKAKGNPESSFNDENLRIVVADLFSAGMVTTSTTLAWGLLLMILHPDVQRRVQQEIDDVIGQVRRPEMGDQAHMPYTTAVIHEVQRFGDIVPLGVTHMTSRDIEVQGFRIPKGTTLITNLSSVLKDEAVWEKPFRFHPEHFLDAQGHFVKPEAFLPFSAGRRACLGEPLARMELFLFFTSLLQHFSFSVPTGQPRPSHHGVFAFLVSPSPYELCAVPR
# CYP3A4 = CYP3A4 (Homo sapiens, UniProt P08684); assay: Time dependent inhibition of CYP3A4 (unknown origin) at 10 uM relative to control; assay type: ADME; details: read-out: TDI
# Sequence of CYP3A4 (P08684 whole entry): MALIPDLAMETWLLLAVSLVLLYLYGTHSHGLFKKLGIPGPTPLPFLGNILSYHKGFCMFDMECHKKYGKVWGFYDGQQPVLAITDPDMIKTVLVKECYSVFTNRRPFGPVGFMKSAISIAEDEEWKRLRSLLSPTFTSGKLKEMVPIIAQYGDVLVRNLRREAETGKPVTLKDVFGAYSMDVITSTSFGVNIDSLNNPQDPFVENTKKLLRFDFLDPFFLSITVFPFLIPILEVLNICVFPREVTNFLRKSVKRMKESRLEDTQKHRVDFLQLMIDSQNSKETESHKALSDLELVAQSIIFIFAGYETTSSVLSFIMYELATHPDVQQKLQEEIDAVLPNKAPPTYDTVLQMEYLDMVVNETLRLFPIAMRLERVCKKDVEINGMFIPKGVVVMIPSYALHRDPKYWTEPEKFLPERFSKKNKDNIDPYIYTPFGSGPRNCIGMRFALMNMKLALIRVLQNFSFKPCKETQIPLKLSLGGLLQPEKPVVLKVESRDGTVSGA
# [21] = Half life in ICR mouse at 50 mg/kg,po measured upto 24 hrs by LC-MS/MS analysis; assay type: ADME, organism-based; details: in vivo
# [22] = Tmax in ICR mouse at 50 mg/kg,po measured upto 24 hrs by LC-MS/MS analysis; assay type: ADME, organism-based; details: in vivo
# [23] = Cmax in ICR mouse at 50 mg/kg,po measured upto 24 hrs by LC-MS/MS analysis; assay type: ADME, organism-based; details: in vivo
# [24] = AUCinfinity in ICR mouse at 50 mg/kg,po measured upto 24 hrs by LC-MS/MS analysis; assay type: ADME, organism-based; details: in vivo
# [25] = target: Serine/threonine-protein kinase ATR (Homo sapiens, UniProt Q13535); assay: Inhibition of human ATR
# [26] = target: Serine-protein kinase ATM (Homo sapiens, UniProt Q13315); assay: Inhibition of human ATM
# [27] = target: DNA-dependent protein kinase catalytic subunit (Homo sapiens, UniProt P78527); assay: Inhibition of human DNA-PK
# Sequence of DNA-dependent protein kinase catalytic subunit (P78527 whole entry, canonical isoform): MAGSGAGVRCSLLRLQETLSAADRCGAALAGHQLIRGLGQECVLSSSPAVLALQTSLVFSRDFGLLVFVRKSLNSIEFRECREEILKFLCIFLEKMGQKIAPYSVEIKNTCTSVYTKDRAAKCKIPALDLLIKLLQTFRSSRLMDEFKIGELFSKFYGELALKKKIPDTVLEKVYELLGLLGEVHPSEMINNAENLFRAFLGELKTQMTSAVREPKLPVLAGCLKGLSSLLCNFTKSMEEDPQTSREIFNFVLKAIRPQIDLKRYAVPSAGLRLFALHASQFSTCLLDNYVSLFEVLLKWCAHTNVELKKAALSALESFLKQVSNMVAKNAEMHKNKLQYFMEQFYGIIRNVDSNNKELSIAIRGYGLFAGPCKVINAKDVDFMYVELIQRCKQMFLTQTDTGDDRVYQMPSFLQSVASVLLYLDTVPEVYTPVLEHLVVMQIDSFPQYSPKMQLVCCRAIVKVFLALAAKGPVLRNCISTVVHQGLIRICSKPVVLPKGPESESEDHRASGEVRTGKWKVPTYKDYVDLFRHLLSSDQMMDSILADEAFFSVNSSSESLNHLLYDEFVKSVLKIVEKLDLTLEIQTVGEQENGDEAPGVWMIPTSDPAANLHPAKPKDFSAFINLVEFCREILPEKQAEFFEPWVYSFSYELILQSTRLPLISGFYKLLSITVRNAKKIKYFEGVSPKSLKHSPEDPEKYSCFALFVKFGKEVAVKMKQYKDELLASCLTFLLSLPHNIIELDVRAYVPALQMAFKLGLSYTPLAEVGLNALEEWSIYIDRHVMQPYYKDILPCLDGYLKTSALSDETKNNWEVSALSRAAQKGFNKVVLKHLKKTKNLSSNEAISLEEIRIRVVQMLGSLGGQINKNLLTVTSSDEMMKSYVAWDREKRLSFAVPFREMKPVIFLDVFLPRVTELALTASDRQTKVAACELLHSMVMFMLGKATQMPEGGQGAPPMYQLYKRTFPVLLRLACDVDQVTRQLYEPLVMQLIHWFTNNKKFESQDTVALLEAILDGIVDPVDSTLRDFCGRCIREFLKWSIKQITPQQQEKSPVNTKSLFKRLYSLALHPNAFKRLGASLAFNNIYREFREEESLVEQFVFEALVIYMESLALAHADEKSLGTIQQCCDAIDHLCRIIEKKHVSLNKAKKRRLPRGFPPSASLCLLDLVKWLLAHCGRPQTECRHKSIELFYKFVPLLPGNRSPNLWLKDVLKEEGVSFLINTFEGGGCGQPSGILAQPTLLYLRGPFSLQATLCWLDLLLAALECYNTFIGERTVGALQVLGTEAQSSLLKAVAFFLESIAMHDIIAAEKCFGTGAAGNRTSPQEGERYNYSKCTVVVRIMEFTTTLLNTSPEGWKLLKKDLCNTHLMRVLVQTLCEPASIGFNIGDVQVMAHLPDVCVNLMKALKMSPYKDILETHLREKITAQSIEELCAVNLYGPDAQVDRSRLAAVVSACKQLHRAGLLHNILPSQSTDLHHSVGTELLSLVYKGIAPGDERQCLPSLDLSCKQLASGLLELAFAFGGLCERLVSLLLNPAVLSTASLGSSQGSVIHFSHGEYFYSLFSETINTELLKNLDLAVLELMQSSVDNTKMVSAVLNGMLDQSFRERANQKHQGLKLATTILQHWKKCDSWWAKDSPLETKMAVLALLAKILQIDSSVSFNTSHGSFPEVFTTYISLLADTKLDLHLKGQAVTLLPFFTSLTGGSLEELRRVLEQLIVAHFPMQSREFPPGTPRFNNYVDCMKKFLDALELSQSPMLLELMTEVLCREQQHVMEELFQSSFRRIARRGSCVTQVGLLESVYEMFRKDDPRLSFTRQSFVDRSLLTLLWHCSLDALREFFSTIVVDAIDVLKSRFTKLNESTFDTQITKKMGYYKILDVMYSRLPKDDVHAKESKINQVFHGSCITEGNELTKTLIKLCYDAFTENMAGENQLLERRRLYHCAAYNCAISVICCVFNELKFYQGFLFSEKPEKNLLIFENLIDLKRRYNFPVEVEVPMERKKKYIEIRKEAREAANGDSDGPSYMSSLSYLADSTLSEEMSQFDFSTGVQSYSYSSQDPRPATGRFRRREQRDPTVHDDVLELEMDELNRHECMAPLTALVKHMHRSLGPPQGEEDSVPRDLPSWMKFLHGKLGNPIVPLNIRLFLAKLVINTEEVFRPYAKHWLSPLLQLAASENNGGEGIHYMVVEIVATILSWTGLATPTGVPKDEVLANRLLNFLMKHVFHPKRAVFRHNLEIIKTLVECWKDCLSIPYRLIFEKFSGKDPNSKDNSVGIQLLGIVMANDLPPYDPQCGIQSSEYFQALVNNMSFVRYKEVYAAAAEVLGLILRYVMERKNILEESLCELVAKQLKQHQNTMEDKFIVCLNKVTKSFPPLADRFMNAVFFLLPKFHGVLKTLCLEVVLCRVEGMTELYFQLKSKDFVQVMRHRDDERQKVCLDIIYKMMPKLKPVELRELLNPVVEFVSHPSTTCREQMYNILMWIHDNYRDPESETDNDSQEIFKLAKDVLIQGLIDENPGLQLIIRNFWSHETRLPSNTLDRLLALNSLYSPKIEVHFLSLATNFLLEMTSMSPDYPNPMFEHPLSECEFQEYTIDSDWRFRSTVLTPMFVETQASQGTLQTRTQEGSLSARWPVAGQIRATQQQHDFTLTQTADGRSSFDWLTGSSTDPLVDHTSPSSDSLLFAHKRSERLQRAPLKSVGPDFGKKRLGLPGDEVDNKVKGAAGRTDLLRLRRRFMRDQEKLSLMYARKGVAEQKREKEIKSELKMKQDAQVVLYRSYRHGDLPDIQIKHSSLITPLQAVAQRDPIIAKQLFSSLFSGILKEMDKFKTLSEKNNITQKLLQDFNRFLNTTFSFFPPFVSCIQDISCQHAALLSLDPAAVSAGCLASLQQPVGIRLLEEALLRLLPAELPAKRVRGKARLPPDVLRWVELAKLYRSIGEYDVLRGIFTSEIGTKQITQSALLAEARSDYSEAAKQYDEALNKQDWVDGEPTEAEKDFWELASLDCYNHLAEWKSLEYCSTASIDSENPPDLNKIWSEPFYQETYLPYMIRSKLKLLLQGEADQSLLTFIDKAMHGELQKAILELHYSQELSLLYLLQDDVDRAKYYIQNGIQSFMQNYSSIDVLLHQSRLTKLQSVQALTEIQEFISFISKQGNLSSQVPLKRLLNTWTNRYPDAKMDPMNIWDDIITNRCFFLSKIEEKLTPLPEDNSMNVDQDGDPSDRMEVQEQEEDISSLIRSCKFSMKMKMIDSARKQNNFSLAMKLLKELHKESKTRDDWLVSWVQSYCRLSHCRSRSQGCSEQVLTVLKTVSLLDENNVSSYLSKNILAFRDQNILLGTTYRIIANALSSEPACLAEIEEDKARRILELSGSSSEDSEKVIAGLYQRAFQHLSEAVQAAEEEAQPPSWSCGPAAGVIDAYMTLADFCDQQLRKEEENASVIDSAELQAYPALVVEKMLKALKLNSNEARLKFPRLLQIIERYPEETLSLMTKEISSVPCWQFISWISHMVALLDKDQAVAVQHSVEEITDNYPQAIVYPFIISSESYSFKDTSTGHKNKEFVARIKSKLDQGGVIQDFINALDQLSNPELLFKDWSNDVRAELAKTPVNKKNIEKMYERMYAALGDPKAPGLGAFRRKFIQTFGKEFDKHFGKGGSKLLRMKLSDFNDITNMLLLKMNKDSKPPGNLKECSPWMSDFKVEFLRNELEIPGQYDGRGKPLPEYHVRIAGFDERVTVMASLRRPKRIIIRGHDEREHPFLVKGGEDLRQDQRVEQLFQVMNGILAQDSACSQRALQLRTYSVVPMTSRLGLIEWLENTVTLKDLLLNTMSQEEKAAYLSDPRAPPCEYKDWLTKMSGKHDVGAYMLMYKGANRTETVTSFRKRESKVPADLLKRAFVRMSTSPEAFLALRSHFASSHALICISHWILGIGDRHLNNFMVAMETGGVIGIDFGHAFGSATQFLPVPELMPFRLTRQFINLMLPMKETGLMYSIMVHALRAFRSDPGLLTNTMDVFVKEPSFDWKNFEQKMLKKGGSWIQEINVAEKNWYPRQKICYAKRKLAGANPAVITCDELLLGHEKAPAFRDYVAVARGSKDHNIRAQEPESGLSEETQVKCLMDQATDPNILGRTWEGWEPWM
# [28] = target: Phosphatidylinositol 4,5-bisphosphate 3-kinase catalytic subunit alpha isoform (Homo sapiens, UniProt P42336); assay: Inhibition of human PI3Kalpha
# [29] = Brain to plasma ratio in ICR mouse at 50 mg/kg,po measured upto 24 hrs by LC-MS/MS analysis; assay type: ADME, organism-based
# Granta-519 [30] = assay: Induction of apoptosis in human Granta-519 cells assessed as viable cells at 500 nM incubated for 48 hrs by Annexin-V-FITC/propidium iodide staining based flow cytometry (reference value: 92.7 %); assay type: functional; details: read-out: Activity
# Granta-519 [31] = assay: Induction of apoptosis in human Granta-519 cells assessed as viable cells at 1000 nM incubated for 48 hrs by Annexin-V-FITC/propidium iodide staining based flow cytometry (reference value: 92.7 %); assay type: functional; details: read-out: Activity
# [32] = Acute toxicity in Beagle dog assessed as change in body weight at 10 to 90 mg/kg,po once daily for 7 days; assay type: organism-based, Canis lupus familiaris; details: in vivo, 168 h, dose 10-90 mg/kg, time 7 day
# [33] = Acute toxicity in Beagle dog assessed as change in platelet count at 10 to 90 mg/kg,po once daily for 7 days; assay type: organism-based, Canis lupus familiaris; details: in vivo, 168 h, dose 10-90 mg/kg, time 7 day
# [34] = Acute toxicity in Beagle dog assessed as change in serum creatinine level at 10 to 90 mg/kg,po once daily for 7 days; assay type: organism-based, Canis lupus familiaris; details: in vivo, 168 h, dose 10-90 mg/kg, time 7 day
# [35] = Toxicity in CB17-SCID mouse xenografted with human Granta-519 cells assessed as change in body weight at 50 mg/kg,po bid for 3 weeks administrated 5 days weekly; assay type: organism-based; details: in vivo, 504 h
# [36] = Toxicity in BALB/c mouse xenografted with human A2780 cells assessed as change in body weight at 50 mg/kg,po bid for 3 weeks administrated 5 days weekly; assay type: organism-based; details: in vivo, 504 h
# [37] = Toxicity in BALB/c mouse xenografted with human PC-3 cells assessed as change in body weight at 50 mg/kg,po bid for 3 weeks administrated 5 days weekly; assay type: organism-based; details: in vivo, 504 h
# [38] = Toxicity in CB17-SCID mouse xenografted with human Granta-519 cells assessed as change in body weight at 50 mg/kg,po once daily for 3 weeks administrated 5 days weekly in presence of niraparib; assay type: organism-based; details: in vivo, 504 h
# [39] = Toxicity in BALB/c mouse xenografted with human HT-29 cells assessed as change in body weight at 50 mg/kg,po once daily for 4 weeks in presence of 3 Gy of ionizing radiation; assay type: organism-based; details: in vivo, 672 h
# [40] = Toxicity in BALB/c mouse xenografted with human CAPAN-1 cells assessed as change in body weight at 50 mg/kg,po once daily for 3 weeks administrated 4 days weekly in presence of gemcitabine; assay type: organism-based; details: in vivo, 504 h
compound,measurement,setting,value
C[C@@H]1COCCN1c1nc(-c2ccnc3[nH]ccc23)nc2c1ccn2S(C)(=O)=O,viability at 2 µM,Granta-519 [1],76.9%
same,IC50,ATR/ATRIP,0.0016 µM
same,IC50,[2],0.0458 µM
same,IC50,[3],7.31 µM
same,IC50,[4],2.59 µM
same,IC50,[5],> 10 µM
same,IC50,[6],> 10 µM
same,IC50,[7],> 10 µM
same,IC50,[8],> 10 µM
same,IC50,Aurora kinase B,> 10 µM
same,IC50,[9],> 10 µM
same,IC50,[10],> 10 µM
same,IC50,AMPK alpha2/beta1/gamma1,> 10 µM
same,IC50,[11],> 10 µM
same,IC50,[12],> 10 µM
same,IC50,[13],> 10 µM
same,logD,[14],3.61
same,fraction unbound,[15],0.005
same,Papp A→B,[16],39.6 ×10⁻⁶ cm/s
same,Papp B→A,[17],32.5 ×10⁻⁶ cm/s
same,Papp A→B,[18],41.9 ×10⁻⁶ cm/s
same,Papp B→A,[19],51.2 ×10⁻⁶ cm/s
same,inhibition at 10 µM,CYP1A2,37.5%
same,inhibition at 10 µM,CYP2C9,7.09%
same,AUC(0-t) at 24 h,[20],140 µg·h/mL
same,inhibition at 10 µM,CYP2C19,12.1%
same,inhibition at 10 µM,CYP2D6,2%
same,inhibition at 10 µM,CYP3A4,21.2%
same,half-life,[21],2.29 h
same,Tmax,[22],1 h
same,Cmax,[23],19800 ng/mL
same,AUC(0-inf),[24],140 µg·h/mL
same,IC50,[25],0.0025 µM
same,IC50,[26],3.21 µM
same,IC50,[27],0.119 µM
same,IC50,[28],2.06 µM
same,BPR,[29],31%
same,viability at 0.5 µM,Granta-519 [30],89.6%
same,viability at 1 µM,Granta-519 [31],81.3%
same,Activity,[32],Non-Toxic
same,Activity,[33],Toxic
same,Activity,[34],Toxic
same,Activity,[35],Toxic
same,Activity,[36],Toxic
same,Activity,[37],Toxic
same,Activity,[38],Toxic
same,Activity,[39],Toxic
same,Activity,[40],Toxic

# — ChEMBL document CHEMBL5523766 (J Med Chem, 2024)
